{
  "source": "patent US20070154538A1",
  "about": "“Removal of fat cells by PDT” (CeramOptec GmbH, priority 2005, published 2007)",
  "assay": "solubility of the photosensitizer in triglycerides",
  "format": "physicochemical",
  "details": "the main component of adipose cells",
  "data": [
    {"smiles": "Oc1cccc(-c2c3nc(c(-c4cccc(O)c4)c4ccc([nH]4)c(-c4cccc(O)c4)c4nc(c(-c5cccc(O)c5)c5ccc2[nH]5)CC4)C=C3)c1", "note": "[mTHPC, temoporfin]", "values": [
      {"measurement": "solubility level in the triglycerides", "value": "low solubility level"}
    ]}
  ]
}
